# Where a SMILES comes first, the peptide text is derived from it. Where no end group is shown, it is not given here. [ ]: non-standard residue; d: D form. Dmt = Cc1cc(O)cc(C)c1C[C@H](N)C(=O)O
# Legend:
# [1] = tested on: several mammalian cell types; conditions: cited from earlier work
# [2] = tested on: patient with a homozygous AGK founder mutation (Sengers syndrome); conditions: approximately six months, 0.25 then 0.50 mg/kg/day intravenous
# Method: The patient was treated with D-Arg-2′6′-Dmt-Lys-Phe-NH2 for approximately six months through a compassionate care protocol.
# [3] = target: mu-opioid receptor (Homo sapiens, UniProt P35372); test: Mu-opioid receptor agonist activity (stated, no test described); conditions: statement of the description, no test given
# mu-opioid receptor, sequence (P35372 whole entry, species assumed): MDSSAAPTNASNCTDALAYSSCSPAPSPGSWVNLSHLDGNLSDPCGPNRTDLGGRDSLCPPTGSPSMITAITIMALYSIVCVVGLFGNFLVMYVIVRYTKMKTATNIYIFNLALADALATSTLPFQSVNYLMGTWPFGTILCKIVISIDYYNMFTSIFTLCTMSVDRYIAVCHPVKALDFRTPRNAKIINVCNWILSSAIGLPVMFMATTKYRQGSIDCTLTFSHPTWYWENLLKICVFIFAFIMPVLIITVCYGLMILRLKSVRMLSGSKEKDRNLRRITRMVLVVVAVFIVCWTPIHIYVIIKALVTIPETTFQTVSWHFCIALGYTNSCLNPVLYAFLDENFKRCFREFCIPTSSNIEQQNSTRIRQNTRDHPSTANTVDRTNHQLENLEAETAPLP
molecule,measurement,setting,value
"2′, 6′-Dmt-D-Arg-Phe-Lys-NH2",Penetration of the plasma membrane,[1],readily penetrates the plasma membrane of several mammalian cell types in an energy-independent manner
Cc1cc(O)cc(C)c1C[C@H](NC(=O)[C@H](N)CCCNC(=N)N)C(=O)N[C@@H](CCCCN)C(=O)N[C@@H](Cc1ccccc1)C(N)=O [D-Arg-2′6′-Dmt-Lys-Phe-NH2] (H-[dR][Dmt]KF-NH2),Side effects attributable to treatment,[2],no discernable side effects
F[dR]FK-NH2,mu-opioid receptor agonist activity,[3],does not have mu-opioid receptor agonist activity
Tyr-D-Arg-Phe-Lys-NH2,mu-opioid receptor agonist activity,[3],has mu-opioid receptor agonist activity

# Source: patent US11931397B2, “Methods and compositions for the treatment of Sengers syndrome” (Stealth BioTherapeutics Inc., priority 2018, dated 2024)
